Measured values: paper PMC11359702, “Synthesis and Biochemical Evaluation of Ethanoanthracenes and Related Compounds: Antiproliferative and Pro-Apoptotic Effects in Chronic Lymphocytic Leukemia (CLL)” (Pharmaceuticals, 2024)
Where two headings read alike, the source gives them in different places.

Legend:
[1] = system: SR; test: NCI-60 five-dose assay; format: cell-based, human
[2] = system: HG-3 cells; conditions: 10 µM
[3] = system: PGA-1 cells; conditions: 10 µM
[4] = system: healthy-donor peripheral blood mononuclear cells (PBMCs); test: Annexin V/PI assay in donor PBMCs; format: cell-based; conditions: 48 h
Text: Whole blood samples from healthy donors (×5) were isolated, prepared and treated following the protocol previously described. The percentage of apoptosis observed in the treatment of isolated donor PBMCs with nitrovinylethanoanthracene 20a is concentration-dependent (Figure 11A). […] For ethanoanthracene 23a, the percentage of total apoptosis observed is illustrated in Figure 11B. […] The percentage of total apoptosis observed in the treatment of isolated donor PBMCs with the anthracene–chalcone 25n (normalized against vehicle 0.5% v/v DMSO) is illustrated in Figure 11C, and the dose-response behavior was also concentration-dependent, with compound 25n moderately toxic to healthy-donor PBMCs when treated at a 5.00 µM concentration (39%).
The human peripheral blood mononuclear cells (PBMCs) were generated as follows: peripheral blood was obtained from healthy donors (n = 2) after informed consent was received. The blood was then placed into a 50-mL falcon tube and diluted with an equal volume of phosphate-buffered saline (PBS). PBMCs were isolated using density-gradient centrifugation with LymphoPrep, as described previously. The cells were resuspended in RPMI media containing 10% FBS and 1% penicillin/streptomycin (P/S). The cells were counted using a haemocytometer and seeded into 96 well plates at a density of 1 × 10^5 cells/well (200 µL), and they were incubated at 37 °C for 1 h prior to compound treatment. The Annexin V/PI assay was used as a preliminary method of assessing the selective toxicity of the above compounds when compared with a previous alamarBlue cell viability assay in CLL cell lines. The assay was carried out as described above for the Annexin V/PI assay previously described above, and it was completed in triplicate on two independent days. Approval for this study was obtained from the School of Pharmacy and Pharmaceutical Sciences Trinity College Dublin Research Ethics Committee (2020-06-01-MS).

[5] = HPLC stability study in phosphate buffers; format: physicochemical; conditions: for remaining at 24 h, 14.6 µg/mL / half-life at 14.6 µg/mL: phosphate buffer, 37 °C; for remaining at 24 h, 14.6 µg/mL: HPLC
In short: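 Compound stock (5 mg in 10 mL 80:20 acetonitrile–water) added to phosphate buffers at pH 4, 7.4 and 9 and held at 37 °C. Sampled over 24 h (0 min to 24 h) and analysed by C18 HPLC with UV detection at 254 nm; single experiments.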

[6] = system: SF295; test: NCI-60 five-dose assay; format: cell-based; conditions: Homo sapiens, SF-295
Protocol: (§1) A number of our most promising compounds identified through preliminary cell viability testing (23c, 23d, 23f, 23h, 23l, 23m, 23n, 23o, 24f, 24l, 25n and 26n) were selected for NCI drug screening in the 60-cell-line panel. The panel includes nine subcategories based on cancer tissue types, which include leukemia, ovarian, central nervous system, breast, lung, prostate, skin, renal and colon cancer. The compounds were initially assessed in a one-dose assay at a fixed treatment concentration of 10 µM. The compounds selected for further investigation were progressed to a five-dose assay across the concentration ranges of 0.01, 0.1, 1, 10 and 100 µM [72]. The endpoints assessed in the screening protocol were GI50, TGI and LC50 [72].

[7] = system: T-47D; test: NCI-60 five-dose assay; format: cell-based; conditions: Homo sapiens, T47D
Protocol: as §1

| SMILES | GI50 [1] [nM] | cell viability [2] [%] | cell viability [3] [%] | total apoptosis (toxicity) in healthy-donor PBMCs ([4]; 5 µM) [%] | total apoptosis (toxicity) in healthy-donor PBMCs ([4]; 1.25–2.5 µM) | recovery at 24 h ([5]; over the pH range studied (pH 4, 7.4 and 9)) [%] | remaining at 24 h, 14.6 µg/mL ([5]; pH 4 buffer, read-out: % remaining 24 h pH 4) [%] | half-life at 14.6 µg/mL ([5]; pH 4 buffer, read-out: Half-life pH 4 (converted)) [h] | remaining at 24 h, 14.6 µg/mL ([5]; pH 7.4 buffer, read-out: % remaining 24 h pH 7.4) [%] | half-life at 14.6 µg/mL ([5]; pH 7.4 buffer, read-out: Half-life pH 7.4 (converted)) [h] | remaining at 24 h, 14.6 µg/mL ([5]; pH 9 buffer, read-out: % remaining 24 h pH 9) [%] | half-life at 14.6 µg/mL ([5]; pH 9 buffer, read-out: Half-life pH 9 (converted)) [h] | GI50 ([1]; Homo sapiens) [nM] | GI50 [6] [nM] | GI50 [7] [nM] |
| --- | --- | --- | --- | --- | --- | --- | --- | --- | --- | --- | --- | --- | --- | --- | --- |
| O=C(/C=C/C12c3ccccc3C(c3ccccc31)C1C(=O)NC(=O)C12)c1ccc(Cl)cc1 (racemic) [Compound 23l, (E)-9-(3-(4-Chlorophenyl)-3-oxoprop-1-en-1-yl)-9,10-dihydro-9,10-[3,4]epipyrroloanthracene-12,14-dione] | 2150 | 0.7 | 5 | – | – | – | – | – | – | – | – | – | – | – | – |
| O=C(C=CC12c3ccccc3C(c3ccccc31)C1C(=O)NC(=O)C12)c1ccc(Br)cc1 (centres unmarked) [Compound 23a, 9-(E)-3-(4-Bromophenyl)-3-oxoprop-1-en-1-yl)-9,10-dihydro-9,10-[3,4]epipyrroloanthracene-12,14-dione] | – | – | – | 28 | 5–14% | < 50 | 3.12 | 13.3 | 1.38 | ~7.5 | 0.48 | ~7.5 | – | – | – |
| O=C(C=CC12c3ccccc3C(c3ccccc31)C1C(=O)N(c3ccc(Cl)cc3)C(=O)C12)c1ccccn1 (centres unmarked) [Compound 25n, (E)-13-(4-Chlorophenyl)-9-(3-oxo-3-(pyridin-2-yl)prop-1-en-1-yl)-9,10-dihydro-9,10-[3,4]epipyrroloanthracene-12,14-dione] | 284 | – | – | 39 | – | – | – | – | – | – | – | – | 280 | 379 | 312 |
